Laboratory results as given in the supplement of paper PMC10307832.

Experiments:
Assay in all cases: relative viability (nuclei count vs DMSO), 5 days (fraction); higher = more cells survive
[1] = compound: C[C@@]1(C(=O)Nc2ccc(F)nc2)CCCN1c1nc(Nc2cc(C3CC3)n[nH]2)c2cccn2n1 + C[C@]1(O)C[C@@H](c2nc(-c3ccc4ccc(-c5ccccc5)nc4c3)c3c(N)nccn32)C1 [Linsitinib] (partner 1 µM)
Method in brief: (§1)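 Lung cancer cell lines were seeded in 1536-well plates and dosed by pin tool the next day, with either a single drug or a fixed anchor-drug dose combined with five library-drug doses (not always all listed) spaced in √10 steps. Five days later, one step fixed the cells and stained their nuclei (final 0.05% Triton X-100, 1% formaldehyde, 1 ug/ml Hoechst), and nuclei were counted on 4× images. Relative viability is the nuclei count in treated wells divided by the count in vehicle wells, and each value is the median of duplicate plates.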

Motesanib + Navitoclax = compound: CC1(C)CNc2cc(NC(=O)c3cccnc3NCc3ccncc3)ccc21 [Motesanib] + CC1(C)CCC(c2ccc(Cl)cc2)=C(CN2CCN(c3ccc(C(=O)NS(=O)(=O)c4ccc(N[C@H](CCN5CCOCC5)CSc5ccccc5)c(S(=O)(=O)C(F)(F)F)c4)cc3)CC2)C1 [Navitoclax] (partner 0.5 µM)
Method in brief: as §1

Motesanib + Palbociclib = compound: CC1(C)CNc2cc(NC(=O)c3cccnc3NCc3ccncc3)ccc21 [Motesanib] + CC(=O)c1c(C)c2cnc(Nc3ccc(N4CCNCC4)cn3)nc2n(C2CCCC2)c1=O [Palbociclib] (partner 0.5 µM)
Method in brief: as §1

[2] = compound: C[C@@]1(C(=O)Nc2ccc(F)nc2)CCCN1c1nc(Nc2cc(C3CC3)n[nH]2)c2cccn2n1 + C[C@@H](Oc1cc(-c2cnn(C3CCNCC3)c2)cnc1N)c1c(Cl)ccc(F)c1Cl [Crizotinib] (partner 1 µM)
Method in brief: as §1

Cell Line	relative viability ([1]; first compound 0.04 µM)	relative viability ([1]; first compound 0.1265 µM)	relative viability ([1]; first compound 0.4 µM)	relative viability ([1]; first compound 1.265 µM)	relative viability (Motesanib + Navitoclax; first compound 0.01 µM)	relative viability (Motesanib + Navitoclax; first compound 0.03162 µM)	relative viability (Motesanib + Navitoclax; first compound 0.1 µM)	relative viability (Motesanib + Navitoclax; first compound 0.3162 µM)	relative viability (Motesanib + Navitoclax; first compound 1 µM)	relative viability (Motesanib + Palbociclib; first compound 0.01 µM)	relative viability (Motesanib + Palbociclib; first compound 0.03162 µM)	relative viability (Motesanib + Palbociclib; first compound 0.1 µM)	relative viability (Motesanib + Palbociclib; first compound 0.3162 µM)	relative viability (Motesanib + Palbociclib; first compound 1 µM)	relative viability ([2]; first compound 0.04 µM)	relative viability ([2]; first compound 0.1265 µM)	relative viability ([2]; first compound 0.4 µM)	relative viability ([2]; first compound 1.265 µM)
HCC-366	0.732	0.446	0.459	0.677	0.917	0.975	0.972	0.998	1.19	0.354	0.36	0.367	0.452	0.435	0.612	0.442	0.388	0.0918
HCC-827	0.94	0.973	0.945	0.961	1.11	1.01	1.07	1.05	1.02	0.569	0.437	0.459	0.546	0.439	0.897	0.899	0.901	0.9
HOP-62	0.927	0.773	1.06	1.06	1.12	0.939	1.07	1.15	1.26	0.451	0.43	0.499	0.51	0.494	0.896	0.96	0.888	0.981
IA-LM	0.602	0.718	0.459	0.452	0.803	0.827	0.737	0.673	0.631						0.68	0.983	0.646	0.456
LC-2-ad	0.897	0.865	0.788	0.576	0.405	0.381	0.522	0.402	0.4	0.487	0.514	0.556	0.49	0.5	0.448	0.387	0.349	0.304
LCLC-97TM1	0.191	0.173	0.163	0.207	0.406	0.519	0.32	0.375	0.657	0.188	0.216	0.229	0.32	0.261	0.184	0.186	0.12	0.187
LCLC-103H	1.23	1.01	1.01	1.18						0.505	0.469	0.525	0.555	0.513	1.07	1.01	0.904	1.04
LK-2	0.579	1.11	0.376	0.573	0.915	0.877	0.811	0.911	0.894	0.784	0.659	0.537	0.667	0.708	0.208	0.335	0.224	0.159
LOU-NH91	0.937	1.12	0.82	0.977	0.774	0.638	0.741	0.703	0.769	0.536	0.463	0.539	0.58	0.553	0.736	0.812	0.667	0.725
NCI-H358	0.654	0.663	0.494	0.474						0.142	0.133	0.132	0.161	0.13	0.474	0.394	0.241	0.216
NCI-H522										1.15	1.01	1	0.84	1.26				
NCI-H596	0.954	1.02	0.939	1.18	0.962	0.893	0.9	0.879	1.1						1.05	0.984	0.857	1.06
NCI-H650	1.19	0.706	0.804	0.721						0.32	0.3	0.356	0.319	0.341	0.764	0.449	0.489	0.47
NCI-H661	0.63	0.809	0.571	0.545						0.43	0.414	0.43	0.435	0.402	0.983		1.01	
NCI-H1299	0.988	1.04	1	0.988	1.06	1.04	1.06	1.11	1.07						0.963	0.956	0.97	0.96
NCI-H1395	1.3	0.737	1.01	0.947	1.22	1.06	1.27	1.17	1.27	0.682	0.602	0.623	0.661	0.661				
NCI-H1563	1.11	1.07	1.06	1.16											0.829	0.91	0.947	0.828
NCI-H1648										0.305			0.28	0.261				
NCI-H1650					1.19		1.17	1.44	1.23	0.351	0.385	0.349	0.346	0.343	0.966	0.813	0.9	0.366
NCI-H1703	1.03	0.457	0.632	0.695	1.25	1.05	0.494	0.299	0.27						0.586	0.535	0.792	
NCI-H1793	0.863	0.961	0.573	0.992	0.594	0.445	0.41	0.583	0.33	0.351	0.306	0.335	0.277	0.334				
NCI-H2170					0.574	0.773	0.545	0.676	0.537	0.397	0.382	0.388	0.377	0.397	1.09	1.11	1.03	1.27
NCI-H2342										0.508	0.52	0.539	0.527	0.554				
SW 900										0.489	0.53	0.56	0.614	0.564				
